Source: patent US8329651B2, “Method for renal disease diagnosis and prognosis using annexin A1 and Rab23 as markers” (National Defense Medical Center, priority 2009, dated 2012)

Assay: Adriamycin-induced focal segmental glomerulosclerosis (FSGS) in mice: urine protein, serum creatinine, BUN
Format: in vivo
Details: 8-week-old BALB/c mice, adriamycin 0.1 mg/per 10 g body weight intravenously, day 15
Procedure: 8-week-old BALB/c mice were injected with adriamycin (0.1 mg/per 10 g body weight) intravenously to induce Focal Segmental Glomerulosclerosis (FSGS). Blood, urine, and kidney tissue samples were collected at days 0, 7, 15, and 20 after injection. More specifically, the blood samples were collected from the retro-orbital venous plexus and the urine samples were collected by gentle abdominal massage. The samples were centrifuged to remove insoluble substances and then stored in liquid nitrogen. When urine proteins are to be measured, the corresponding samples were collected on parafilms. The modified Bradford protein assay was performed to examine urine protein concentration, the picric acid colorimetric kit (Sigma 555-1) was used for detecting creatinine, and an urease assay kit provided by Sigma (640-5) was used for determining the level of blood urea nitrogen (BUN).

serum creatinine level (control mice 0.48±0.03): 2.02 ± 0.17 mg/dL
urine protein level (control mice 0.59±0.082): 16.84 ± 3.13 mg/mL
BUN (blood urea nitrogen) level (control mice 21.85±1.99): 71.42 ± 8.09 mg/dL
SMILES: COc1cccc2c1C(=O)c1c(O)c3c(c(O)c1C2=O)C[C@@](O)(C(=O)CO)C[C@@H]3O[C@H]1C[C@H](N)[C@H](O)[C@H](C)O1 [adriamycin]
